Laboratory results: ChEMBL document CHEMBL5335856, “Structurally Diverse Alkaloids with Anti-Renal-Fibrosis Activity from the Centipede Scolopendra subspinipes mutilans” (J Nat Prod, 2024)
Calls of active or inactive are those of the source. The rule behind the calls is not given here.

Experiments:
[1] = molecular target: Na(+)/H(+) exchange regulatory cofactor NHE-RF1 (Homo sapiens) (UniProt O14745); test: Binding affinity to Slc9a3r1 (unknown origin) assessed as fold change in protein upregulation at 200 uM preincubated for 2 hrs followed by pronase addition and measured after 30 mins by coomassie blue staining based SDS-PAGE gel analysis
Chain of Na(+)/H(+) exchange regulatory cofactor NHE-RF1 (Homo sapiens) (O14745 whole entry): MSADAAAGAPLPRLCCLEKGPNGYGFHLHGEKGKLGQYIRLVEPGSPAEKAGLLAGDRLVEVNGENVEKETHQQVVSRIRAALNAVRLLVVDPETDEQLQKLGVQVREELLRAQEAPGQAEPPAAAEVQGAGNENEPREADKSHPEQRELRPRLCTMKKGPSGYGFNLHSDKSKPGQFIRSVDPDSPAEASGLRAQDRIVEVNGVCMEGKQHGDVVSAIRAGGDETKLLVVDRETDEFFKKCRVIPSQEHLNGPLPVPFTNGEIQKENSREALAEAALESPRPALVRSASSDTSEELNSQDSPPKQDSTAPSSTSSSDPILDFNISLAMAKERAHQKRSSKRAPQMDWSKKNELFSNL

[2] = molecular target: 10 kDa heat shock protein, mitochondrial (Homo sapiens) (UniProt P61604); test: Binding affinity to Hspe1 (unknown origin) assessed as fold change in protein upregulation at 200 uM preincubated for 2 hrs followed by pronase addition and measured after 30 mins by coomassie blue staining based SDS-PAGE gel analysis
Chain of 10 kDa heat shock protein, mitochondrial (Homo sapiens) (P61604 whole entry): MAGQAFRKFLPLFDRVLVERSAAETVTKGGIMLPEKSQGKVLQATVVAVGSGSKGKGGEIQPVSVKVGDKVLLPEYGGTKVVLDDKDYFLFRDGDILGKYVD

NRK-52E [3] = test: Anti-renal-fibrosis activity in TGF-beta1 induced rat NRK-52E cells assessed as downregulation of fibronectin protein level by Western blot analysis; type: functional, cell-based; conditions: dose 5-40 µM
[4] = molecular target: ATP-dependent RNA helicase DHX8 (Homo sapiens) (UniProt Q14562); test: Binding affinity to Dhx8 (unknown origin) at 200 uM preincubated for 2 hrs followed by pronase addition and measured after 30 mins by coomassie blue staining based SDS-PAGE gel analysis
[5] = molecular target: Chromobox protein homolog 5 (Homo sapiens) (UniProt P45973); test: Binding affinity to Cbx5 (unknown origin) assessed as fold change in protein upregulation at 200 uM preincubated for 2 hrs followed by pronase addition and measured after 30 mins by coomassie blue staining based SDS-PAGE gel analysis
Chain of Chromobox protein homolog 5 (Homo sapiens) (P45973 whole entry): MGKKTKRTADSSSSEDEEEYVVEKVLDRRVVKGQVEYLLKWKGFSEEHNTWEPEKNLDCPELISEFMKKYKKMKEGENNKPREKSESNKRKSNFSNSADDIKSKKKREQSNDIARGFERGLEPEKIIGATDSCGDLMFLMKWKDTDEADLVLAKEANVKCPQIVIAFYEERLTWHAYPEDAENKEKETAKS

Septin-5 (Homo sapiens) = Septin-5 (Homo sapiens) (UniProt Q99719); test: Binding affinity to Septin5 (unknown origin) assessed as fold change in protein upregulation at 200 uM preincubated for 2 hrs followed by pronase addition and measured after 30 mins by coomassie blue staining based SDS-PAGE gel analysis
Chain of Septin-5 (Homo sapiens) (Q99719 whole entry): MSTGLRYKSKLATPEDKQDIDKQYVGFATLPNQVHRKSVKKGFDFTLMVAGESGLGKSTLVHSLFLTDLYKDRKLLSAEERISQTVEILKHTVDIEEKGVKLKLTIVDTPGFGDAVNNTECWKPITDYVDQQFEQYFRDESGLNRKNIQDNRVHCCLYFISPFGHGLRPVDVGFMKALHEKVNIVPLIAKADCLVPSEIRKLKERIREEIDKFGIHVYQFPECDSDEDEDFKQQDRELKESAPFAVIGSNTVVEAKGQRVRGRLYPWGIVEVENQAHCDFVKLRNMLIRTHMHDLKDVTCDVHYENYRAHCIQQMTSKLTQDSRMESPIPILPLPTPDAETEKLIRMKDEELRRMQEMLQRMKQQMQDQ

[6] = molecular target: FACT complex subunit SPT16 (Homo sapiens) (UniProt Q9Y5B9); test: Binding affinity to Supt16h (unknown origin) assessed as fold change in protein upregulation at 200 uM preincubated for 2 hrs followed by pronase addition and measured after 30 mins by coomassie blue staining based SDS-PAGE gel analysis
[7] = molecular target: Protein FAM91A1 (Homo sapiens) (UniProt Q658Y4); test: Binding affinity to Fam91a1 (unknown origin) assessed as fold change in protein upregulation at 200 uM preincubated for 2 hrs followed by pronase addition and measured after 30 mins by coomassie blue staining based SDS-PAGE gel analysis
NRK-52E [8] = test: Anti-renal-fibrosis activity in TGF-beta1 induced rat NRK-52E cells assessed as downregulation of alpha-SMA protein level by Western blot analysis; type: functional, cell-based; conditions: dose 5-40 µM
RAW264.7 [9] = test: Antiinflammatory activity against LPS-induced mouse RAW264.7 cells assessed as reduction in COX-2 protein level at 20 uM; type: functional, cell-based
NRK-52E [10] = test: Anti-renal-fibrosis activity in TGF-beta1 induced Lamp2 knocked down rat NRK-52E cells assessed as downregulation of alpha-SMA expression at 40 uM; type: functional, cell-based
[11] = molecular target: Prelamin-A/C (Homo sapiens) (UniProt P02545); test: Binding affinity to LMNA (unknown origin) assessed as fold change in protein upregulation at 200 uM preincubated for 2 hrs followed by pronase addition and measured after 30 mins by coomassie blue staining based SDS-PAGE gel analysis
[12] = molecular target: Serine/threonine-protein kinase DCLK1 (Homo sapiens) (UniProt O15075); test: Binding affinity to Dclk1 (unknown origin) assessed as fold change in protein upregulation at 200 uM preincubated for 2 hrs followed by pronase addition and measured after 30 mins by coomassie blue staining based SDS-PAGE gel analysis
Chain of Serine/threonine-protein kinase DCLK1 (Homo sapiens) (O15075 whole entry): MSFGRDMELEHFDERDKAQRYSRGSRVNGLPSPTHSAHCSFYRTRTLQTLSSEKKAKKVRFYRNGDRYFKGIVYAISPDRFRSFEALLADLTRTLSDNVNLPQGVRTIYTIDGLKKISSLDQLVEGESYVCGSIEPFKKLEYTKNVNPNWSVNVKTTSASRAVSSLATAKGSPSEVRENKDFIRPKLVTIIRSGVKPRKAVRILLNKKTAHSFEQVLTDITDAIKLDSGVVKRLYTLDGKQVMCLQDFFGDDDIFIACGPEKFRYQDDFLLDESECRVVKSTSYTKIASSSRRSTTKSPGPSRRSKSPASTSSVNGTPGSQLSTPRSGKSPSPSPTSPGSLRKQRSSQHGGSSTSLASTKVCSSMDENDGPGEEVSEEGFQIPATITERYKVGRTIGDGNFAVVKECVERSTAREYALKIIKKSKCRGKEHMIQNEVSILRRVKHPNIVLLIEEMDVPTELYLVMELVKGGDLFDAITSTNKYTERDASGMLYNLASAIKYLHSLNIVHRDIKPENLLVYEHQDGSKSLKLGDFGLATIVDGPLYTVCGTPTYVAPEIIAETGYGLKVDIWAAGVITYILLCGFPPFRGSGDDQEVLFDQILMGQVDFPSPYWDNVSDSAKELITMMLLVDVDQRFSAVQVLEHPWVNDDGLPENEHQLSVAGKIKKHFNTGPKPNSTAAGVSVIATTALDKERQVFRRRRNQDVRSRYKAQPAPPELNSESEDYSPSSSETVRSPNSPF

[13] = molecular target: Transcription initiation factor TFIID subunit 6 (Homo sapiens) (UniProt P49848); test: Binding affinity to Taf6 (unknown origin) at 200 uM preincubated for 2 hrs followed by pronase addition and measured after 30 mins by coomassie blue staining based SDS-PAGE gel analysis
NRK-52E [14] = test: Cytotoxicity against rat NRK-52E cells at 10 to 80 uM incubated for 48 hrs by CCK-8 assay; type: toxicity, cell-based; conditions: dose 10-80 µM
Testin (Homo sapiens) = Testin (Homo sapiens) (UniProt Q9UGI8); test: Binding affinity to Tes (unknown origin) assessed as fold change in protein upregulation at 200 uM preincubated for 2 hrs followed by pronase addition and measured after 30 mins by coomassie blue staining based SDS-PAGE gel analysis
[15] = molecular target: Cysteine and glycine-rich protein 2 (Homo sapiens) (UniProt Q16527); test: Binding affinity to Csrp2 (unknown origin) assessed as fold change in protein upregulation at 200 uM preincubated for 2 hrs followed by pronase addition and measured after 30 mins by coomassie blue staining based SDS-PAGE gel analysis
[16] = molecular target: U6 snRNA-associated Sm-like protein LSm8 (Homo sapiens) (UniProt O95777); test: Binding affinity to Lsm8 (unknown origin) at 200 uM preincubated for 2 hrs followed by pronase addition and measured after 30 mins by coomassie blue staining based SDS-PAGE gel analysis
[17] = molecular target: Nonsense-mediated mRNA decay factor SMG7 (Homo sapiens) (UniProt Q92540); test: Binding affinity to Smg7 (unknown origin) at 200 uM preincubated for 2 hrs followed by pronase addition and measured after 30 mins by coomassie blue staining based SDS-PAGE gel analysis
Chain of Nonsense-mediated mRNA decay factor SMG7 (Homo sapiens) (Q92540 whole entry): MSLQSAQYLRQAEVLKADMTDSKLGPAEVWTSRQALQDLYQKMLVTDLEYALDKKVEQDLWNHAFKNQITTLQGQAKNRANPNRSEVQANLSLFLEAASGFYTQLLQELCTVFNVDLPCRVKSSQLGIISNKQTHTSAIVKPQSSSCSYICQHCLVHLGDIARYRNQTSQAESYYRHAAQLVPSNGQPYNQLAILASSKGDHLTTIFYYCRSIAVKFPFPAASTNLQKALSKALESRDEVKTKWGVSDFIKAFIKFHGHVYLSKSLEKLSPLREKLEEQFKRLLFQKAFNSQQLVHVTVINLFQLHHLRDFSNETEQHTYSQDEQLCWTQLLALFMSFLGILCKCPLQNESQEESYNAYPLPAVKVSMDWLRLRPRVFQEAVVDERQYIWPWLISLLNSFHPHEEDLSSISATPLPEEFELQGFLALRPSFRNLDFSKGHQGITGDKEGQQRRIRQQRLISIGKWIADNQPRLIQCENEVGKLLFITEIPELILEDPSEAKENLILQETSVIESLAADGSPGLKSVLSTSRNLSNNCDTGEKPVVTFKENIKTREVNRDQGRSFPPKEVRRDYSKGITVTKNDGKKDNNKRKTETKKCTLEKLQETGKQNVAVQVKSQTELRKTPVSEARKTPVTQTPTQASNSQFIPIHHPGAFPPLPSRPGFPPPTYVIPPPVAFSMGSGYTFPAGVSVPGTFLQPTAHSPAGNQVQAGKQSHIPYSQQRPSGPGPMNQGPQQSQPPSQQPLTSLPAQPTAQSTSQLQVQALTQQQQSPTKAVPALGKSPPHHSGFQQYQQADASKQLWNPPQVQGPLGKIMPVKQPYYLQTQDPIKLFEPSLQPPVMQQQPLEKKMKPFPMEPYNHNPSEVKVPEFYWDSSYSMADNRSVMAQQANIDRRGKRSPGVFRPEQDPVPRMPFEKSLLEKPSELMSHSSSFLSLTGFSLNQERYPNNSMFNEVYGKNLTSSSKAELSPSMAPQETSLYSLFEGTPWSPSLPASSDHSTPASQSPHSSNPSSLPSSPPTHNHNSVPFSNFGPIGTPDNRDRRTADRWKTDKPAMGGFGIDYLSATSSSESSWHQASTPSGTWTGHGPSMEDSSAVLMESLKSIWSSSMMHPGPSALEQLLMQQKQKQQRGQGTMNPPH

[18] = molecular target: Collagen alpha-1(I) chain (Homo sapiens) (UniProt P02452); test: Binding affinity to Col1a1 (unknown origin) at 200 uM preincubated for 2 hrs followed by pronase addition and measured after 30 mins by coomassie blue staining based SDS-PAGE gel analysis
Chain of Collagen alpha-1(I) chain (Homo sapiens) (P02452 whole entry): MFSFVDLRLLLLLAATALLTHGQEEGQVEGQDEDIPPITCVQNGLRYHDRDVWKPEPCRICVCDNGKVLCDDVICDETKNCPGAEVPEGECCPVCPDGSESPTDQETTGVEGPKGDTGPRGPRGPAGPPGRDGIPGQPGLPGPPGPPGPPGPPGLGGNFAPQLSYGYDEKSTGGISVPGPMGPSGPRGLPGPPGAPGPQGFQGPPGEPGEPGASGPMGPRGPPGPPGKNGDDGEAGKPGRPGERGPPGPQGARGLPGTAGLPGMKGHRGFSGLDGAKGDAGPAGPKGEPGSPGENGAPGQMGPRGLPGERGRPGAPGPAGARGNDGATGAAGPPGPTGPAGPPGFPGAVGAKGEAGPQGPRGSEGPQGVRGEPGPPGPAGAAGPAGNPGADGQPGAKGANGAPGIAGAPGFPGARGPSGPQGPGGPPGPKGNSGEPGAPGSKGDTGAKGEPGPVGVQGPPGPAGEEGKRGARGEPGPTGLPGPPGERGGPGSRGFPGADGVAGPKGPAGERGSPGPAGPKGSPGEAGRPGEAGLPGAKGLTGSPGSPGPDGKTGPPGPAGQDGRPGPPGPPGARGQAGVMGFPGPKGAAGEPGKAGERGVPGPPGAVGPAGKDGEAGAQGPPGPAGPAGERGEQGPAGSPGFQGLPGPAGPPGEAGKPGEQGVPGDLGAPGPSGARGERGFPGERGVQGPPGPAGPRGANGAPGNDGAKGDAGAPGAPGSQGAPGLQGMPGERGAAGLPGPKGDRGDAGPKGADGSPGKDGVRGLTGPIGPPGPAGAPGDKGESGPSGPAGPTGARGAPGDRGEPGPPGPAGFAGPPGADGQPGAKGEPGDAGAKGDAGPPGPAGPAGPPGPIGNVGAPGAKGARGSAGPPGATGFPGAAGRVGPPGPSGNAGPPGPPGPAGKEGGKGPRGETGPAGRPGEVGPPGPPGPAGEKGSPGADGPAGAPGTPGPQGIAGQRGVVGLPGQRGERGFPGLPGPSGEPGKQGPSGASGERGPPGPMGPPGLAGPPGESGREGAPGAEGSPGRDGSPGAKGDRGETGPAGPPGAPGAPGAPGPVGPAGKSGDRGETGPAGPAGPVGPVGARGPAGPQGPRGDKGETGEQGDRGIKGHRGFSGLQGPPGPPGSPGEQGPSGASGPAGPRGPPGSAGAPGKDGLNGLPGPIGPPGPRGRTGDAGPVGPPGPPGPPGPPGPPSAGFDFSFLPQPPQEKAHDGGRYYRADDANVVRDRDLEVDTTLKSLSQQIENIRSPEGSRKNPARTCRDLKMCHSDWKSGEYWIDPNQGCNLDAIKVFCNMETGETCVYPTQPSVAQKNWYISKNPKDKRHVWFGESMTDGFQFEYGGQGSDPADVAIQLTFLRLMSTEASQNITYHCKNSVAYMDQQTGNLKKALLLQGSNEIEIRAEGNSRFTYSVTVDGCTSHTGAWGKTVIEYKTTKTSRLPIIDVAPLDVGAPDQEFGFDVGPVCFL

[19] = molecular target: Far upstream element-binding protein 2 (Homo sapiens) (UniProt Q92945); test: Binding affinity to KHSRP (unknown origin) assessed as fold change in protein upregulation at 200 uM preincubated for 2 hrs followed by pronase addition and measured after 30 mins by coomassie blue staining based SDS-PAGE gel analysis
[20] = molecular target: Chromosome transmission fidelity protein 18 homolog (Homo sapiens) (UniProt Q8WVB6); test: Binding affinity to Chtf18 (unknown origin) assessed as fold change in protein upregulation at 200 uM preincubated for 2 hrs followed by pronase addition and measured after 30 mins by coomassie blue staining based SDS-PAGE gel analysis
NRK-52E [21] = test: Anti-renal-fibrosis activity in TGF-beta1 induced rat NRK-52E cells assessed as downregulation of fibronectin expression at 40 uM; type: functional, cell-based
Lamin-B2 (Homo sapiens) = Lamin-B2 (Homo sapiens) (UniProt Q03252); test: Binding affinity to Lmnb2 (unknown origin) assessed as fold change in protein upregulation at 200 uM preincubated for 2 hrs followed by pronase addition and measured after 30 mins by coomassie blue staining based SDS-PAGE gel analysis
Chain of Lamin-B2 (Homo sapiens) (Q03252 whole entry): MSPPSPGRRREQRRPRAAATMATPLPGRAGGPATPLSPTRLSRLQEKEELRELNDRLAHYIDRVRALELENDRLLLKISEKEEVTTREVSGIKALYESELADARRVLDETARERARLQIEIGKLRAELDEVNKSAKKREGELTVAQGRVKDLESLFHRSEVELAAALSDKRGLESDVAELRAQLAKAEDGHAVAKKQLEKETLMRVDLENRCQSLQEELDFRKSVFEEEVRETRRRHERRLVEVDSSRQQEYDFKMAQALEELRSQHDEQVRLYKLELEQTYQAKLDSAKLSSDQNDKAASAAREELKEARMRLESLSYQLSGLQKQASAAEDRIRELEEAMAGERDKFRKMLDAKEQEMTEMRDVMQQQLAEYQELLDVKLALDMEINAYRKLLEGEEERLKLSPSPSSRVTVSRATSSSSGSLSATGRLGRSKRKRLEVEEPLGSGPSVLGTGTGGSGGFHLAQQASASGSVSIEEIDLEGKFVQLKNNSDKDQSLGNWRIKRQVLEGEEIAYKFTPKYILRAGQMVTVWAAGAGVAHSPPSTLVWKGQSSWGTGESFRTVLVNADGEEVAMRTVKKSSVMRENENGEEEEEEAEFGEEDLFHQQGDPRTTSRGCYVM

NRK-52E [22] = test: Anti-renal-fibrosis activity in TGF-beta1 induced Lamp2 knocked down rat NRK-52E cells assessed as downregulation of collagen I expression at 40 uM; type: functional, cell-based
RAW264.7 [23] = test: Antiinflammatory activity against LPS-induced mouse RAW264.7 cells assessed as reduction in iNOS protein level at 20 uM; type: functional, cell-based
[24] = molecular target: Protein YIF1B (Homo sapiens) (UniProt Q5BJH7); test: Binding affinity to Yif1b (unknown origin) assessed as fold change in protein upregulation at 200 uM preincubated for 2 hrs followed by pronase addition and measured after 30 mins by coomassie blue staining based SDS-PAGE gel analysis
NRK-52E [25] = test: Anti-renal-fibrosis activity in TGF-beta1 induced Lamp2 knocked down rat NRK-52E cells assessed as downregulation of fibronectin expression at 40 uM; type: functional, cell-based

fold change (FC) [1]: 3.04
fold change (FC) [2]: 1.34
Activity [4]: Active
fold change (FC) [5]: 1.25
fold change (FC) (Septin-5 (Homo sapiens)): 1.48
fold change (FC) [6]: 1.23
fold change (FC) [7]: 1.36
fold change (FC) [11]: 1.34
fold change (FC) [12]: 2.01
Activity [13]: Active
fold change (FC) (Testin (Homo sapiens)): 1.32
fold change (FC) [15]: 1.29
Activity [16]: Active
Activity [17]: Active
Activity [18]: Active
fold change (FC) [19]: 2.19
fold change (FC) [20]: 2.05
fold change (FC) (Lamin-B2 (Homo sapiens)): 1.24
fold change (FC) [24]: 1.76
Structure (SMILES): COc1c(O)nc2c(O)cccc2c1OC
Activity (NRK-52E [3]): Dose-Dependent Effect
Activity (NRK-52E [8]): Dose-Dependent Effect
Activity (RAW264.7 [9]): Active
Activity (NRK-52E [10]): inactive
Activity (NRK-52E [14]): Non-Toxic
Activity (NRK-52E [21]): Active
Activity (NRK-52E [22]): inactive
Activity (RAW264.7 [23]): Active
Activity (NRK-52E [25]): inactive
